The values that follow come from the METLIN SMRT retention time set (Domingo-Almenara et al. 2019).

The nature of the data set: gradient 5% acetonitrile 3 min, to 50% in 2 min, to 85% in 15 min, held 3 min, 100 µL/min. The settings on record: column: Zorbax Extend-C18 2.1 x 50 mm; eluents: water / acetonitrile, 0.1% formic acid. An outline of the steps: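 A Zorbax Extend-C18 column (2.1 × 50 mm, 1.8 μm) run at 100 μL/min with water and acetonitrile, both containing 0.1% formic acid, separated mixtures of ~100 pure standards. The HPLC was coupled to a quadrupole time-of-flight mass spectrometer operated in positive and negative ionization mode, with dead and dwell volumes of 40 μL and 900 μL. Each retention time was taken from a computationally picked adduct peak that was then manually inspected.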
Molecule `CCn1c(=O)oc2cc(-c3noc(-c4cccc5[nH]ccc45)n3)ccc21` had an RP-LC retention time of 1000 s.

`CC(C)(C)c1ccc(C(=O)NCc2ccco2)cc1` had an RP-LC retention time of 873 s.

As for `Cc1nc2ccc(C(=O)N(C)C)cc2nc1C`, the RP-LC retention time stood at 618 s.

Consider `CCOC(=O)c1c(N)ssc1=S`, for which the RP-LC retention time was 786 s.

Molecule `CCN1C(=O)c2cccnc2Sc2cc(CNC(=O)c3cccs3)ccc21` returned an RP-LC retention time of 737 s.

Turning to `Cc1cc(C)cc(NC(=O)C2CCCN2S(C)(=O)=O)c1` (stereo not given), the RP-LC retention time was 782 s.

Molecule `COc1ccc(N2CCN(S(=O)(=O)c3cc(-c4nc(C(C)C)cs4)sc3C)CC2)cc1` returned an RP-LC retention time of 1340 s.

Consider `Cc1ccc(Cl)cc1N1CCN(CC(O)COc2ccccc2[N+](=O)[O-])CC1` (stereo not given), for which the RP-LC retention time was determined as 626 s.

`Cc1ccccc1-n1c(=O)c2sccc2n(Cc2nc(-c3ccc(Br)cc3)no2)c1=O` gave an RP-LC retention time of 1120 s.

Consider `O=C(NC1CC1)c1ccc(OCC2CCCN2C(=O)c2ccccc2F)cc1` (stereo not given), for which the RP-LC retention time came out at 751 s.

As to `COc1ccccc1-c1nc(Cn2ccnc2C)no1`, the RP-LC retention time amounted to 584 s.

`CC(C)n1c(=O)sc2cc(S(=O)(=O)N3CCC(C(=O)Nc4cccc(Cl)c4)CC3)ccc21` gave an RP-LC retention time of 1060 s.

Molecule `CSc1ccc(-c2nc3nc(C)cc(C)n3c2Nc2ccc(C(C)C)cc2)cc1` came in with an RP-LC retention time of 943 s.

In the case of `O=C(NCc1csc(C2CCN(C(=O)C3CCCO3)CC2)n1)C1CC1` (stereo not given), the RP-LC retention time came to 614 s.

As to `O=C(Cn1nc(S(=O)(=O)c2ccccc2)ccc1=O)Nc1ccc2c(c1)OCO2`, the RP-LC retention time is 796 s.

Take `CC1=C(c2ccc(C)c(C)c2)S(=O)(=O)N=C1N1CCCN(C(=O)c2cccnc2)CC1`: the RP-LC retention time came out at 788 s.

In turn, `CCOC(=O)C1=C(CN2CCCCC2)NC(=O)NC1c1ccco1` (stereo not given) came in with an RP-LC retention time of 579 s.

For the molecule `Cc1[nH]c(C(=O)N2CCCC(C(=O)NCCN3CCOCC3)C2)c(C)c1C(=O)OC(C)C` (stereo not given), the RP-LC retention time stood at 607 s.

`CCCc1noc(-c2ccc3nnc(CC(=O)Nc4ccc(F)c(C)c4)n3c2)n1` yielded an RP-LC retention time of 921 s.

Molecule `Nc1nc(N2CCc3ccccc3C2)ncc1C(=O)NCc1ccccc1` showed an RP-LC retention time of 737 s.

`OC[C@@H]1CN(C2CCCC2)C[C@H]1c1nc(-c2ccncc2)no1` had an RP-LC retention time of 553 s.

`NCC(=O)c1cccc2ccc[n+]([O-])c12` registered an RP-LC retention time of 678 s.

As for `Cn1cccc1C(CNS(=O)(=O)c1ccc2c(c1)OCCO2)N1CCOCC1` (stereo not given), the RP-LC retention time was determined as 563 s.

`CNC(=O)c1sc2nc(-c3cccc(F)c3)c(NCCOC)n2c1C`: the RP-LC retention time worked out at 734 s.

Turning to `CC(C)(CO)c1cc2cc(NC(=O)C3(c4ccc5c(c4)OC(F)(F)O5)CC3)c(F)cc2n1C[C@@H](O)CO`, the RP-LC retention time came out at 1000 s.

`CCc1nc2cc(N3CCC(C(=O)NC(C)c4ccccc4)CC3)cnc2nc1CC` (stereo not given) showed an RP-LC retention time of 837 s.

Regarding `COC(=O)COC(=O)c1cn(-c2ccc(C)cc2)c(=O)c2ccccc12`, the RP-LC retention time amounted to 986 s.

In turn, `O=C(NC1CC1)c1ccc(N2CCC(NCc3ccc(C(F)(F)F)cc3)C2)nc1` (stereo not given) gave an RP-LC retention time of 663 s.

Molecule `Clc1ccc(OCc2nc3c4ccccc4ncn3n2)cc1` came in with an RP-LC retention time of 951 s.

`CC(=O)Nc1nsc(N2CCC(C(=O)NCc3ccccc3F)CC2)n1` displayed an RP-LC retention time of 659 s.

`COc1ccc(-c2nsc(SCC(=O)Nc3ccc4c(c3)OCCO4)n2)cc1` had an RP-LC retention time of 906 s.

Molecule `CCSc1ccccc1C(=O)NCC1(CO)CC1` had an RP-LC retention time of 640 s.

Turning to `CCOC(=O)CCNC(=O)NCC1CC(=O)N(c2ccc(F)cc2)C1` (stereo not given), the RP-LC retention time was determined as 629 s.

Take `Fc1cc(-c2cccc3ncc(-c4cnn(C5CCNCC5)c4)nc23)cc(F)c1CN1CCOCC1`: the RP-LC retention time worked out at 611 s.

Consider `CCCCNC(=O)C1CCN(Cc2cc3ccccc3n2Cc2ccccc2Cl)CC1`, for which the RP-LC retention time stood at 788 s.

In turn, `O=C(C1CCN(S(=O)(=O)Cc2ccc(F)cc2)CC1)N1CCOCC1` yielded an RP-LC retention time of 705 s.

Turning to `Cc1ccc(S(=O)(=O)CCc2noc(C(=O)NCCN3CCC(C)CC3)n2)cc1`, the RP-LC retention time was determined as 631 s.

For the molecule `COc1ccc(NC(=O)C2CCCN(S(=O)(=O)c3cc(-c4noc(C)n4)cs3)C2)cc1` (stereo not given), the RP-LC retention time worked out at 914 s.

The molecule `Cc1ccc(C(=O)N(CCc2cscn2)Cc2cccnc2)cc1C` returned an RP-LC retention time of 636 s.

`Cc1nc(N2CCCC(C(=O)Nc3ccc(F)cc3)C2)c2c(C)c(C)oc2n1` (stereo not given) came in with an RP-LC retention time of 910 s.

As to `CSc1ccc(CNC(=O)C2CCCN(c3nn4c(=O)c5c(nc4s3)CCCC5)C2)cc1` (stereo not given), the RP-LC retention time came out at 792 s.

With `COc1ccc(-c2cnn3c(C)cc(C)nc23)cc1S(=O)(=O)NC(C)c1ccccc1` (stereo not given), the RP-LC retention time was 1010 s.

Take `Cc1ccc(Sc2nccnc2N2CCC(C(=O)N3CCN(c4ccc(F)cc4)CC3)CC2)cc1`: the RP-LC retention time is 1200 s.

Regarding `Cc1ccc(NC(=O)CSc2nc3nc(C)cc(C)n3n2)cc1`, the RP-LC retention time came to 726 s.

`Cc1ccc(-c2noc(C3CCCN3C(=O)c3ccc(C(C)C)cc3)n2)cc1` (stereo not given) had an RP-LC retention time of 1210 s.

The molecule `CC(C)(C)C(O)CCNC(=O)C1(c2ccc(F)cc2)CC1` (stereo not given) returned an RP-LC retention time of 823 s.

In turn, `COc1ccc(NC(=O)c2c[nH]c3ncccc23)cc1` gave an RP-LC retention time of 673 s.

`COc1ccccc1CC(=O)Nc1ccc2c(c1)Sc1ncccc1C(=O)N2C(C)C`: the RP-LC retention time stood at 855 s.

`O=C(O)Cc1sc(-c2ccccc2)nc1-c1ccc(Cl)cc1` registered an RP-LC retention time of 1140 s.

For the molecule `CCCS(=O)(=O)N1CCC(Oc2nccnc2N2CCOCC2)C1` (stereo not given), the RP-LC retention time amounted to 761 s.

Take `Cn1nc(N2CCC(NC(=O)Cc3c[nH]c4ccccc34)C2)ccc1=O` (stereo not given): the RP-LC retention time stood at 632 s.

The molecule `COc1ccc(-n2ccc(=O)c(-c3nc(-c4ccccc4Cl)no3)n2)cc1` returned an RP-LC retention time of 877 s.

As to `CCc1nc2cccnc2n1-c1ccc(C(=O)NC)cc1`, the RP-LC retention time turned out to be 659 s.

On to `COc1ccc(OCc2nnc3sc(-c4ccccn4)nn23)cc1`, for which the RP-LC retention time was determined as 823 s.

For `O=C(Nc1cccc(OCc2nnc(-c3ccc(F)cc3)o2)c1)C1CC(=O)N(c2ccccc2)C1` (stereo not given), the RP-LC retention time worked out at 895 s.

`O=C(Cn1cnc2nc3c(cc2c1=O)CCCC3)Nc1cccc(C(F)(F)F)c1`: the RP-LC retention time amounted to 823 s.

Regarding `COc1cc(Cl)ccc1C(=O)N1CCC(OC2CCN(C)CC2)CC1`, the RP-LC retention time was 606 s.

For the molecule `CCOc1ccc(-n2ccn3cc(-c4ccc(C)cc4)nc3c2=O)cc1`, the RP-LC retention time was found to be 879 s.

As for `O=C(NCc1ccco1)C1CCN(c2nc3ccsc3c(=O)n2Cc2ccccc2)CC1`, the RP-LC retention time amounted to 829 s.

`O=C(Cn1ccn2nc(-c3ccccc3)c(CO)c2c1=O)NC1CCCC1` returned an RP-LC retention time of 721 s.

In turn, `O=c1cc(CN(Cc2ccccc2)Cc2ccccc2)nc2ccc(Cl)cn12` gave an RP-LC retention time of 745 s.

The molecule `COc1ccccc1-n1nnc(C(=O)Nc2nc(C)cs2)c1-c1ccccn1` came in with an RP-LC retention time of 758 s.

The molecule `Cc1cc(N2CCCC2)n2nc(CN3CCN(c4ccc(Cl)cc4)CC3)nc2n1` returned an RP-LC retention time of 654 s.

With `O=C(c1cccs1)N1N=C(c2cccs2)CC1c1cc([N+](=O)[O-])ccc1O` (stereo not given), the RP-LC retention time amounted to 876 s.

On to `Cc1noc(C)c1CCNC(=O)C1CCN(C(=O)c2ncn3c2COC(c2ccc(F)cc2)C3)CC1` (stereo not given), for which the RP-LC retention time amounted to 711 s.

In the case of `CCOC(=O)c1cccc(NC(=O)C2CCCN(c3nc4ccccc4nc3C(F)(F)F)C2)c1` (stereo not given), the RP-LC retention time came to 1280 s.

For `O=C(Cc1csc(NC(=O)c2ccco2)n1)NCc1cccs1`, the RP-LC retention time was 668 s.

In turn, `Cc1ccc(CCNC(=O)Cc2csc3nc(-c4ccc(C)c(C)c4)cn23)cc1` displayed an RP-LC retention time of 884 s.

Turning to `CC1CCCN(c2nn(CC(=O)Nc3ccccc3Cl)c(=O)c3ccccc23)C1` (stereo not given), the RP-LC retention time turned out to be 1180 s.

For the molecule `Cc1noc([C@@H]2CN(C(=O)c3occc3C)C[C@H]2COCC2CC2)n1`, the RP-LC retention time was 794 s.

Molecule `CCn1ccc2oc(C)c(C(=O)N3CCN(c4cccc(Cl)c4)CC3)c2c1=O` gave an RP-LC retention time of 896 s.

`CC(C)NC(=O)c1ccc(OCC2CCN(C(=O)Cc3ccc(Cl)cc3)CC2)cc1` yielded an RP-LC retention time of 927 s.

With `O=C(NCCCn1ncccc1=O)c1ccc(S(=O)(=O)N2CCCC2)cc1`, the RP-LC retention time is 621 s.

For the molecule `Cn1nccc1C(=O)Nc1ccsc1-c1nc(-c2ccc(F)cc2)no1`, the RP-LC retention time came out at 1260 s.

Regarding `O=C(Cc1ccc(Cl)cc1)N1CCCn2nc(-c3ccc(Cl)cc3)cc2C1`, the RP-LC retention time worked out at 1050 s.

As to `CC(C)CCn1c(CN(C)C(=O)c2ccco2)nc2ccccc21`, the RP-LC retention time was 718 s.

`Cc1ccc2nc(-c3ccccc3O)c(Nc3ccccc3C)n2c1` gave an RP-LC retention time of 751 s.

`CN1C(=O)CCC2(CNC(=O)Nc3ccccc3)CCC=C12` (stereo not given) returned an RP-LC retention time of 721 s.

Take `COc1ccc(-c2csc(C)n2)cc1S(=O)(=O)N1CCN(c2cccc(C)c2C)CC1`: the RP-LC retention time was 1270 s.

Molecule `COc1ccc(CNC(=O)NCC2(CO)CC2)cc1OC` came in with an RP-LC retention time of 590 s.
